Source: the kinase profiling compilation of Christmann-Franck et al. (2016)

Key:
Experiment in all cases: radiometric filter-binding kinase assay
[1] = system: AKT1 (human), P31749 [S473D]
[2] = system: AKT2 (human), P31751 [S474D]
[3] = biological target: CAMKK2 (human) (UniProt Q96RR4)
[4] = biological target: CHEK1 (human) (UniProt O14757)
[5] = biological target: CSK (human) (UniProt P41240)
[6] = biological target: CaMK1 (human) (UniProt Q14012)
[7] = biological target: EPHA2 (human) (UniProt P29317)
[8] = biological target: EPHB3 (human) (UniProt P54753); settings: compound 1.0 µM
[9] = biological target: HIPK3 (human) (UniProt Q9H422); settings: compound 1.0 µM
[10] = biological target: IGF1R (human) (UniProt P08069); settings: compound 1.0 µM
[11] = biological target: IKBKB (human) (UniProt O14920)
[12] = biological target: IKBKE (human) (UniProt Q14164)
[13] = system: LCK (mouse); settings: accession and sequence are those of the human protein
[14] = biological target: MAP2K2 (human) (UniProt P36507); settings: compound 1.0 µM
[15] = biological target: MAP3K11 (human) (UniProt Q16584); settings: compound 1.0 µM
[16] = biological target: MAP3K9 (human) (UniProt P80192); settings: compound 1.0 µM
[17] = biological target: MAPK12 (human) (UniProt P53778)
[18] = biological target: MAPK13 (human) (UniProt O15264); settings: compound 1.0 µM
[19] = biological target: MAPKAPK2 (human) (UniProt P49137)
[20] = biological target: MAPKAPK3 (human) (UniProt Q16644); settings: compound 1.0 µM
[21] = biological target: MAPKAPK5 (human) (UniProt Q8IW41)
[22] = biological target: MARK3 (human) (UniProt P27448)
[23] = biological target: MINK1 (human) (UniProt Q8N4C8); settings: compound 1.0 µM
[24] = biological target: MKNK2 (human) (UniProt Q9HBH9)
[25] = biological target: NUAK1 (human) (UniProt O60285); settings: compound 1.0 µM
[26] = biological target: PAK4 (human) (UniProt O96013)
[27] = biological target: PAK7 (human) (UniProt Q9P286)
[28] = system: PINK1 (Tribolium castaneum); settings: accession and sequence are those of the human protein
[29] = biological target: PLK1 (human) (UniProt P53350)
[30] = biological target: PRKAA1 PRKAB2 PRKAG1 (human) (UniProt O43741+Q13131+P54619)
[31] = biological target: PRKCA (human) (UniProt P17252)
[32] = biological target: PRKCG (human) (UniProt P05129); settings: compound 1.0 µM
[33] = biological target: PTK6 (human) (UniProt Q13882); settings: compound 1.0 µM
[34] = biological target: RIPK2 (human) (UniProt O43353); settings: compound 1.0 µM
[35] = system: ROCK2 (rat); settings: accession and sequence are those of the human protein
[36] = system: SGK1 (human), O00141 [S422D]
[37] = biological target: SRPK1 (human) (UniProt Q96SB4)
[38] = biological target: TEK (human) (UniProt Q02763); settings: compound 1.0 µM
[39] = biological target: YES1 (human) (UniProt P07947)
[40] = biological target: ZAP70 (human) (UniProt P43403); settings: compound 1.0 µM

Sequence of EPHA2 (human) (P29317 whole entry, looked up): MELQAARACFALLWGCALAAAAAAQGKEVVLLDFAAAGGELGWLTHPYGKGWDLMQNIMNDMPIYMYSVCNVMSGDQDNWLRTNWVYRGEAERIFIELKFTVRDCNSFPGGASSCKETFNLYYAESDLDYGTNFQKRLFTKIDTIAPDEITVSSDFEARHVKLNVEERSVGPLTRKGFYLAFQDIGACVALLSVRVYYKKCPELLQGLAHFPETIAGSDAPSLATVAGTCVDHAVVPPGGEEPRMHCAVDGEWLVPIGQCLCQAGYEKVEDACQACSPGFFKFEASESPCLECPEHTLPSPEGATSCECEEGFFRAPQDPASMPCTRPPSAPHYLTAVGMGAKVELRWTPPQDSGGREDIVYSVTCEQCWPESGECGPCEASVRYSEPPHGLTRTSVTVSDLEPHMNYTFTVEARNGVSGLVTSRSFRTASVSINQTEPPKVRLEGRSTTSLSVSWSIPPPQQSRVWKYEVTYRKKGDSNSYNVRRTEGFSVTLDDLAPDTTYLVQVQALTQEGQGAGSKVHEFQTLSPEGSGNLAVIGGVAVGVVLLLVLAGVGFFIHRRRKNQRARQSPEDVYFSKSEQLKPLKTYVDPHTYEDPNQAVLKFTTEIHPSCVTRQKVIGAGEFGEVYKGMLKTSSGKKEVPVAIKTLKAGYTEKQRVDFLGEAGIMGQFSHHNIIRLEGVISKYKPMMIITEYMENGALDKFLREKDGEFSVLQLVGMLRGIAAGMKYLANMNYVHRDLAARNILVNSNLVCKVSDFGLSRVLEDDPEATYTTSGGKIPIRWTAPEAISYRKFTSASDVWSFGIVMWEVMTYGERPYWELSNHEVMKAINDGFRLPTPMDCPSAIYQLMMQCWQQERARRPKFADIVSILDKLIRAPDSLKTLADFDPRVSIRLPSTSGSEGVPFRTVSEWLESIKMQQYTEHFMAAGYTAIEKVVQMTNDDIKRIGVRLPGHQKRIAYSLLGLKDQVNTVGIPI
Sequence of IKBKB (human) (O14920 whole entry, looked up): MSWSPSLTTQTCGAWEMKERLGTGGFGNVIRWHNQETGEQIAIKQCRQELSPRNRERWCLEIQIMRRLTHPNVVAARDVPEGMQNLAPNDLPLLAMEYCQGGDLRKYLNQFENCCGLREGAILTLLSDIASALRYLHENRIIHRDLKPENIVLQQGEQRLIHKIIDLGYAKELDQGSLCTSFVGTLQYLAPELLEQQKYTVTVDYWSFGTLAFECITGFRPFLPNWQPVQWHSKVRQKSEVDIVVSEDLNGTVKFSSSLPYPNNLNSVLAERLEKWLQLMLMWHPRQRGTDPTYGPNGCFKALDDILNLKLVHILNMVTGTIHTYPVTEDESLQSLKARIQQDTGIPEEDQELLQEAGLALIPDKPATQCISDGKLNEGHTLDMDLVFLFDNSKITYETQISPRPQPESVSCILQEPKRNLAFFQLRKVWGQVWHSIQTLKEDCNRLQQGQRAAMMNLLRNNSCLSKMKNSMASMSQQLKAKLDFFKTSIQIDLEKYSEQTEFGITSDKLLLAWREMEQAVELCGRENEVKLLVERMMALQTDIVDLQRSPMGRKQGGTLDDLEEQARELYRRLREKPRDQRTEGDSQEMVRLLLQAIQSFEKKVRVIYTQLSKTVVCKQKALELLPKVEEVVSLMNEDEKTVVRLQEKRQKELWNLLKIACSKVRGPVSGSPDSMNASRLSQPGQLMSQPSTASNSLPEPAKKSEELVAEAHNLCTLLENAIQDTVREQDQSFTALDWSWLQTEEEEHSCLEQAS
Sequence of IKBKE (human) (Q14164 whole entry, looked up): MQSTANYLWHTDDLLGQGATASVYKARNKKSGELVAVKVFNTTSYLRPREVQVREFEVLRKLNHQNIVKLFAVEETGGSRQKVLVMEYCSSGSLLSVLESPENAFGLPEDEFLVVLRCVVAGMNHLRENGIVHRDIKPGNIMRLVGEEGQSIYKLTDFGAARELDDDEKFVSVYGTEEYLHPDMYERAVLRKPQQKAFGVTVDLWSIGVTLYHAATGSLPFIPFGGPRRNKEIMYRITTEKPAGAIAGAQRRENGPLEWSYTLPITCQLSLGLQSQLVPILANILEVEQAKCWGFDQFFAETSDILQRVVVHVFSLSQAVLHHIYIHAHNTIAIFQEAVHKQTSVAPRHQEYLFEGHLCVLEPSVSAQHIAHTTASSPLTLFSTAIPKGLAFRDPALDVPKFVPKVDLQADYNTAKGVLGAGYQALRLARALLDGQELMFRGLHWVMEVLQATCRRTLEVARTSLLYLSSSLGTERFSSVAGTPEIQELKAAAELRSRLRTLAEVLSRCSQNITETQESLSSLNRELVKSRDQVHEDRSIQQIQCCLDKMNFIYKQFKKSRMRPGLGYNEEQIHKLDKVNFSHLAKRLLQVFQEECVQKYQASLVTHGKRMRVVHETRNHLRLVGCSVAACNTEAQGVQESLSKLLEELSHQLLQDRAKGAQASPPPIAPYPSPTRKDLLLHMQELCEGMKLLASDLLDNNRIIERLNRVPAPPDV
Sequence of PLK1 (human) (P53350 whole entry, looked up): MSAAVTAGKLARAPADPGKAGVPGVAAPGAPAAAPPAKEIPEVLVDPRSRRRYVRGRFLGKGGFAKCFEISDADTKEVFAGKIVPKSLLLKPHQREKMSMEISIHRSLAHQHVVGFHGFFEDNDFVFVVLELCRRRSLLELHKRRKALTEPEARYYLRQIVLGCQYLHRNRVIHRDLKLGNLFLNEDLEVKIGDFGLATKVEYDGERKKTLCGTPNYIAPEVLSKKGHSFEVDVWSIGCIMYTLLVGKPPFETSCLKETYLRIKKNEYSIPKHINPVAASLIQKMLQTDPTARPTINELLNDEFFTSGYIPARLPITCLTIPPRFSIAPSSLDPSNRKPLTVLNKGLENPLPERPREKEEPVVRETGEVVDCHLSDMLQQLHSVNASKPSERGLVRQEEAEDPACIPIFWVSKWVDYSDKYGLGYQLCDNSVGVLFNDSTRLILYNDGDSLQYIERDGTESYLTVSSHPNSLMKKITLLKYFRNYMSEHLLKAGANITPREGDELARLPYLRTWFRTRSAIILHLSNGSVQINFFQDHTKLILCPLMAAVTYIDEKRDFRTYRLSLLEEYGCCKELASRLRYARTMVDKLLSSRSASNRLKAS
Sequence of CAMKK2 (human) (Q96RR4 whole entry, looked up): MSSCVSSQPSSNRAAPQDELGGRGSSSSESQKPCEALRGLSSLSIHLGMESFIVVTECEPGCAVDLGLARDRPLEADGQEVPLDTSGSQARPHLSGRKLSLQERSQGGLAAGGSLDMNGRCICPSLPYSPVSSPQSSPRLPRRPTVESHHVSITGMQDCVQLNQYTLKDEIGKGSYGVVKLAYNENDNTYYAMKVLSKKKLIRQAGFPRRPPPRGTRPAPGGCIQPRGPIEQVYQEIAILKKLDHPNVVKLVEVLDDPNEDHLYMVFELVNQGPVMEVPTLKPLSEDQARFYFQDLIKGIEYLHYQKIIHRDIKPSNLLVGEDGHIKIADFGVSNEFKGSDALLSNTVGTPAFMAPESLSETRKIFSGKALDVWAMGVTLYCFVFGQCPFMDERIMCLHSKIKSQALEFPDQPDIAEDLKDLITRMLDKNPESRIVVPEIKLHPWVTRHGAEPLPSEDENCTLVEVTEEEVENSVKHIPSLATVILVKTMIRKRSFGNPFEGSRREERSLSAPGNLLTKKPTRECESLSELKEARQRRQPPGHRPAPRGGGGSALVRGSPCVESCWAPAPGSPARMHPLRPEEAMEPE
Sequence of MKNK2 (human) (Q9HBH9 whole entry, looked up): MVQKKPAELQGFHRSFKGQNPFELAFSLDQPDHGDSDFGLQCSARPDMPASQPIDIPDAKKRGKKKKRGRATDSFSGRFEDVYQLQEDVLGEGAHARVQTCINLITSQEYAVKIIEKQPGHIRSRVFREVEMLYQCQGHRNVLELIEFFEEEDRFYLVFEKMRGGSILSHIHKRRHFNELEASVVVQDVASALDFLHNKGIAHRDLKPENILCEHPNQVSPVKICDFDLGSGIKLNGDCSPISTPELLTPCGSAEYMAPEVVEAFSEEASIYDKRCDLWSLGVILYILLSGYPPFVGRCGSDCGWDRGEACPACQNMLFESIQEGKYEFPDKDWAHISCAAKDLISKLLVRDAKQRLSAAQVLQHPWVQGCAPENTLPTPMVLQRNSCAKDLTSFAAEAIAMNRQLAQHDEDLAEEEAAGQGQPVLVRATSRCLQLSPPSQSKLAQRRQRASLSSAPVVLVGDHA
Sequence of CHEK1 (human) (O14757 whole entry, looked up): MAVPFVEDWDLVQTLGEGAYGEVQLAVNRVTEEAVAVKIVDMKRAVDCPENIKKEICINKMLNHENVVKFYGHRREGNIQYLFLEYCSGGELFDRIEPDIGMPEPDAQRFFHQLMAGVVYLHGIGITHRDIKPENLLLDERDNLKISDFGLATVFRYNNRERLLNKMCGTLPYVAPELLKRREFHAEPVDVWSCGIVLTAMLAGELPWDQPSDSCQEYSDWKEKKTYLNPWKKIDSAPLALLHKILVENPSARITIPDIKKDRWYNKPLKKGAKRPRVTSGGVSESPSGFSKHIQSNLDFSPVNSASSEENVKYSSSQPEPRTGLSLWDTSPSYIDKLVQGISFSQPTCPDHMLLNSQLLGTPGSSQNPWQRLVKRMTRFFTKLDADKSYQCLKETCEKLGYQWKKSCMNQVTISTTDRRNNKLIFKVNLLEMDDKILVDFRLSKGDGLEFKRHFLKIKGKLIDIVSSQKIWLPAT
Sequence of CaMK1 (human) (Q14012 whole entry, looked up): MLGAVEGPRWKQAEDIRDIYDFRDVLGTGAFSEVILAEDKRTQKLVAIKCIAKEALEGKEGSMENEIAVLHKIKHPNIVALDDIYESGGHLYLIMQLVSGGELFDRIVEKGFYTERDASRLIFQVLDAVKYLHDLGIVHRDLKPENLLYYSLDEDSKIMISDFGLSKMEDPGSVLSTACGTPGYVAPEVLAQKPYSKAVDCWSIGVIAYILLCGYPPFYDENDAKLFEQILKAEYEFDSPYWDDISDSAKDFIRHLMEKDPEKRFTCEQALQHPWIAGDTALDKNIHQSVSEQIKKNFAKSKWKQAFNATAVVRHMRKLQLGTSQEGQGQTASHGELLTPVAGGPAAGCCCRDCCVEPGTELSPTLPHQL

Molecule `Oc1ccc2c(c1)oc1c3ccccc3c(O)cc21` has a residual activity ([1]; compound 1.0 µM) of 90%, a residual activity ([2]; compound 1.0 µM) of 61% and a residual activity ([3]; compound 1.0 µM) of 76%. The residual activity ([4]; compound 1.0 µM) was 92%, the residual activity ([5]; compound 1.0 µM) was 98% and the residual activity ([6]; compound 1.0 µM) was 72%. The residual activity ([7]; compound 1.0 µM) was 84%, the residual activity [8] was 97% and the residual activity [9] was 63%. It also gave a residual activity [10] of 78%, a residual activity ([11]; compound 1.0 µM) of 85% and a residual activity ([12]; compound 1.0 µM) of 81%. It also gave a residual activity ([13]; compound 1.0 µM) of 92%, a residual activity [14] of 102% and a residual activity [15] of 76%. For the same molecule, the residual activity [16] was 87%, the residual activity ([17]; compound 1.0 µM) was 82% and the residual activity [18] was 95%. It also gave a residual activity ([19]; compound 1.0 µM) of 80%, a residual activity [20] of 84% and a residual activity ([21]; compound 1.0 µM) of 95%. The residual activity ([22]; compound 1.0 µM) was 80%, the residual activity [23] was 87% and the residual activity ([24]; compound 1.0 µM) was 55%. For the same molecule, the residual activity [25] was 88%, the residual activity ([26]; compound 1.0 µM) was 75% and the residual activity ([27]; compound 1.0 µM) was 94%. It also gave a residual activity ([28]; compound 1.0 µM) of 80%, a residual activity ([29]; compound 1.0 µM) of 104% and a residual activity ([30]; compound 1.0 µM) of 91%. The residual activity ([31]; compound 1.0 µM) was 101%, the residual activity [32] was 97% and the residual activity [33] was 103%. For the same molecule, the residual activity [34] was 107%, the residual activity ([35]; compound 1.0 µM) was 92% and the residual activity ([36]; compound 1.0 µM) was 80%. For the same molecule, the residual activity ([37]; compound 1.0 µM) was 83%, the residual activity [38] was 112% and the residual activity ([39]; compound 1.0 µM) was 95%. For the same molecule, the residual activity [40] was 90%.
Molecule `COc1ccc2c(c1)[nH]c1c(C)nccc12` has a residual activity ([1]; compound 1.0 µM) of 100%, a residual activity ([2]; compound 1.0 µM) of 84% and a residual activity ([3]; compound 1.0 µM) of 97%. The residual activity ([4]; compound 1.0 µM) was 94%, the residual activity ([5]; compound 1.0 µM) was 103% and the residual activity ([6]; compound 1.0 µM) was 88%. It also gave a residual activity ([7]; compound 1.0 µM) of 87%, a residual activity [8] of 86% and a residual activity [9] of 118%. For the same molecule, the residual activity [10] was 93%, the residual activity ([11]; compound 1.0 µM) was 81% and the residual activity ([12]; compound 1.0 µM) was 83%. The residual activity ([13]; compound 1.0 µM) was 88%, the residual activity [14] was 99% and the residual activity [15] was 105%. The residual activity [16] was 111%, the residual activity ([17]; compound 1.0 µM) was 67% and the residual activity [18] was 88%. The residual activity ([19]; compound 1.0 µM) was 87%, the residual activity [20] was 105% and the residual activity ([21]; compound 1.0 µM) was 97%. The residual activity ([22]; compound 1.0 µM) was 107%, the residual activity [23] was 101% and the residual activity ([24]; compound 1.0 µM) was 84%. For the same molecule, the residual activity [25] was 96%, the residual activity ([26]; compound 1.0 µM) was 67% and the residual activity ([27]; compound 1.0 µM) was 90%. It also gave a residual activity ([28]; compound 1.0 µM) of 98%, a residual activity ([29]; compound 1.0 µM) of 96% and a residual activity ([30]; compound 1.0 µM) of 106%. For the same molecule, the residual activity ([31]; compound 1.0 µM) was 94%, the residual activity [32] was 100% and the residual activity [33] was 112%. The residual activity [34] was 107%, the residual activity ([35]; compound 1.0 µM) was 102% and the residual activity ([36]; compound 1.0 µM) was 78%. For the same molecule, the residual activity ([37]; compound 1.0 µM) was 78%, the residual activity [38] was 112% and the residual activity ([39]; compound 1.0 µM) was 100%. It also gave a residual activity [40] of 100%.
`Oc1ccc2c(c1)C(O)c1cc(O)ccc1-2` gave a residual activity ([1]; compound 20.0 µM) of 115%, a residual activity ([2]; compound 20.0 µM) of 80% and a residual activity ([3]; compound 20.0 µM) of 91%. For the same molecule, the residual activity ([4]; compound 20.0 µM) was 74%, the residual activity ([5]; compound 20.0 µM) was 98% and the residual activity ([6]; compound 20.0 µM) was 25%. The residual activity ([7]; compound 20.0 µM) was 86%, the residual activity ([11]; compound 20.0 µM) was 94% and the residual activity ([12]; compound 20.0 µM) was 103%. It also gave a residual activity ([13]; compound 20.0 µM) of 93%, a residual activity ([17]; compound 20.0 µM) of 85% and a residual activity ([19]; compound 20.0 µM) of 48%. The residual activity ([21]; compound 20.0 µM) was 61%, the residual activity ([22]; compound 20.0 µM) was 64% and the residual activity ([24]; compound 20.0 µM) was 65%. For the same molecule, the residual activity ([26]; compound 20.0 µM) was 46%, the residual activity ([27]; compound 20.0 µM) was 64% and the residual activity ([28]; compound 20.0 µM) was 68%. For the same molecule, the residual activity ([29]; compound 20.0 µM) was 66%, the residual activity ([30]; compound 20.0 µM) was 99% and the residual activity ([31]; compound 20.0 µM) was 94%. It also gave a residual activity ([35]; compound 20.0 µM) of 78%, a residual activity ([36]; compound 20.0 µM) of 70% and a residual activity ([37]; compound 20.0 µM) of 80%. It also gave a residual activity ([39]; compound 20.0 µM) of 72%.
